One data set has as its target SARS-CoV-2 RdRp (Severe acute respiratory syndrome coronavirus 2, UniProt P0DTD1). Description: biochemical. The conditions noted are these: for Inhibition of SARS-CoV-2 RdRp at one concentration: in vitro RdRp assay, 100 µM. In kind it is biochemical.
Data set [1] can be described thus: in vitro. The conditions noted are these: African green monkey.
Data set [2] can be described thus: in vitro. The conditions noted are these: cat (Felis catus).
Data set [3] has as its system SARS-CoV-2. Description: microbe, parasite or virus in culture. In kind it is cell-based. The settings on record: for Inhibition of SARS-CoV-2 replication at single concentration: 50 µM, initial screening; for Inhibition of SARS-CoV-2 replication at single concentration / EC50: Vero cells; for SI: CC50/EC50, Vero cells, SARS-CoV-2; for EC50: Severe acute respiratory syndrome coronavirus 2, MOI 0.1, 48 h, 50% reduction in viral titers, read-out: EC50 (µM) (95% CI).

Data set [4] concerns SARS-CoV-2. Nature of the data set: microbe, parasite or virus in culture. In kind it is cell-based. The conditions noted are these: for SI: CC50/EC50, CaCo-2 cells, SARS-CoV-2; for EC50: Severe acute respiratory syndrome coronavirus 2, CaCo-2 cells, MOI 0.1, 48 h, 50% reduction in viral titers, read-out: EC50 (µM) (95% CI).
In the next data set the test system is FIPV. Description: Viral titer reduction assay, FIPV in CRFK cells (plaque assay readout). In kind it is cell-based, feline infectious peritonitis virus. The settings on record: for Inhibition of FIPV replication at single concentration: 50 µM, initial screening; for Inhibition of FIPV replication at single concentration / EC50 / Anti-FIPV activity lower compared with remdesivir: CRFK cells; for SI: CC50/EC50, CRFK cells; for SI / EC50: FIPV; for EC50: MOI 0.1, 48 h, 50% reduction in viral titers, read-out: EC50 (µM) (95% CI); for Anti-FIPV activity lower compared with remdesivir: relative to remdesivir EC50.

Data set [5] in a line: in vitro. The settings on record: human.
The test system of another data set is CaCo-2 cells. The conditions noted are these: 50 µM.
The next data set has as its system Vero cells. The conditions noted are these: 50 µM.
A short description of data set [6]: Cytotoxicity (Cell Counting Kit-8, WST-8) in CaCo-2 cells. The conditions noted are these: human.
The nature of data set [7]: Cytotoxicity (Cell Counting Kit-8, WST-8) in CRFK cells. The settings on record: cat (Felis catus). In general terms: Formazan colour is commonly taken as a measure of viable cells.
Data set [8] in a line: Cytotoxicity (Cell Counting Kit-8, WST-8) in Vero cells. The conditions noted are these: African green monkey.
The mark [9] stands for this setting: radioactive primer extension assay, n = 3, ± standard error of the mean, read-out: IC50.

The structures appear in SMILES notation. Like-named read-outs stand apart in the source and are kept apart here. Bounds are passed on as bounds.

Broadly, the IC50 is the concentration needed to halve the response being measured. As a reminder, the EC50 is the concentration needed to bring the measured effect to its halfway point. For `O=C(N[C@@H](Cc1ccc(O)cc1)C(=O)O)c1cc(-c2ccccc2)c(=O)n2c1sc1ccc(OC3CCCCC3)cc12` [Compound 16, reference compound], the IC50 at SARS-CoV-2 RdRp was 27.6 ± 2.1 µM. Besides, on SARS-CoV-2 RdRp, the “Inhibition of SARS-CoV-2 RdRp at one concentration” value (“Inhibition of SARS-CoV-2 RdRp” for short) was “inhibit”. Also, the CC50 at 48 h in “in vitro [1]”, in “in vitro [2]” and in “in vitro [5]” was > 50 µM in each case. Besides, the “Inhibition of SARS-CoV-2 replication at single concentration” value (“Inhibition of SARS-CoV-2 replication” below) in the data set with SARS-CoV-2 [3] is “completely inhibit”. Further, the SI is >76.5 in the data set on SARS-CoV-2 [3]; > 70 in the data set with SARS-CoV-2 [3] (listed as HeE1-2Tyr (16)); >52.7 in the data set with SARS-CoV-2 [4]; > 50 with SARS-CoV-2 [4] (listed as HeE1-2Tyr (16)); >47.1 with FIPV; “exceeding 40” in the data set with FIPV (listed as HeE1-2Tyr (16)). Moreover, the EC50 in the data set on SARS-CoV-2 [3] was 0.653 µM; in the data set with SARS-CoV-2 [4], 0.949 µM; in the data set with FIPV it was 1.06 µM. In addition, the “Inhibition of FIPV replication at single concentration” value (“Inhibition of FIPV replication” below) in the data set on FIPV is recorded as “completely inhibit”. Besides, the “Anti-FIPV activity lower compared with remdesivir” value with FIPV was “approx. 5 fold”.

The viability is a read-out of living cells in per cent, often relative to untreated cells. As to `O=C(N[C@@H](Cc1ccccc1)C(=O)O)c1cc(-c2ccccc2)c(=O)n2c1sc1ccc(OC3CCCCC3)cc12` [Compound 17], the “Inhibition of SARS-CoV-2 RdRp” value at SARS-CoV-2 RdRp was “inhibit”. In addition, on SARS-CoV-2 RdRp (setting [9]), the half-inhibitory concentration (IC50) was determined as 41.2 ± 1.7 µM. Further, the CC50 at 48 h in “in vitro [1]”, in the data set “in vitro [2]” and in “in vitro [5]” was > 50 µM each time. Further, the viability at 48 h, 50 µM in “in vitro [2]” was ~60%. Moreover, the “Inhibition of SARS-CoV-2 replication” value in the data set on SARS-CoV-2 [3] is “completely inhibit”. For the same compound, the SI in the data set on SARS-CoV-2 [3] is listed as >94.8; with SARS-CoV-2 [4], >50.2. Further, the EC50 in the data set with SARS-CoV-2 [3] worked out at 0.527 µM; with SARS-CoV-2 [4] it was 0.996 µM; with FIPV, 0.999 µM. The Cell viability entry in the data set with CaCo-2 cells and with Vero cells was “approx. 125 % of untreated cells” throughout. In addition, the “Inhibition of FIPV replication” value in the data set with FIPV is reported as “completely inhibit”. Moreover, in the data set on FIPV, the “Anti-FIPV activity lower compared with remdesivir” value was “approx. 5 fold”.

In the case of `O=C(N[C@@H](Cc1ccc(O)cc1)C(=O)O)c1ccc(=O)n2c1sc1ccc(OC3CCCCC3)cc12` [Compound 18], the “Inhibition of SARS-CoV-2 RdRp” value at SARS-CoV-2 RdRp is on record as “inhibit”. Besides, on SARS-CoV-2 RdRp (setting [9]), the half-maximal inhibitory concentration (IC50) came out at 85.5 ± 2 µM. Besides, the CC50 at 48 h in the data set “in vitro [1]”, in “in vitro [2]” and in the data set “in vitro [5]” was > 50 µM in each case. In the data set on SARS-CoV-2 [3], the “Inhibition of SARS-CoV-2 replication” value is “inactive”. Also, the SI with SARS-CoV-2 [3] is >1; in the data set with SARS-CoV-2 [4], >2; in the data set on FIPV, >1. Also, the values for the 50% effective concentration (EC50) in the data set with SARS-CoV-2 [3] and with SARS-CoV-2 [4] were > 50 µM and > 25 µM, respectively. Moreover, in the data set on FIPV, the “Inhibition of FIPV replication” value is “inactive”.

Regarding `CCC(CC)COC(=O)[C@H](C)N[P@](=O)(OC[C@H]1O[C@@](C#N)(c2ccc3c(N)ncnn23)[C@H](O)[C@@H]1O)Oc1ccccc1` [Remdesivir], the CC50 at 48 h in data set [6], in data set [7] and in data set [8] was > 50 µM in each case. Moreover, the values for the SI in the data set on SARS-CoV-2 [3] and in the data set on FIPV were >55.5 and >224.2, respectively. In addition, the EC50 with SARS-CoV-2 [3] is 0.901 µM; with SARS-CoV-2 [4] it was < 0.3 µM.

For the origin of these results see paper PMC8402726 (Viruses, 2021).
